From paper PMC9673804, “Design, synthesis and antitumor evaluation of novel pyrazolo[3,4-d]pyrimidines incorporating different amino acid conjugates as potential DHFR inhibitors” (Journal of Enzyme Inhibition and Medicinal Chemistry, 2022) come the findings set out here.

“And” between values parts separate entries of the source, which are not always exact repeats. Identical values can stand only once.

Test [1] relates to cervical carcinoma (HeLa). In words: SRB cytotoxicity assay, HeLa. In kind it is cell-based. The conditions noted are these: Homo sapiens, HeLa cells.
The next test concerns the target T1, human DHFR enzyme (Homo sapiens, UniProt P00374).
T1 construct: purchased MyBioSource MBS9312476
T1 sequence (P00374 1-187): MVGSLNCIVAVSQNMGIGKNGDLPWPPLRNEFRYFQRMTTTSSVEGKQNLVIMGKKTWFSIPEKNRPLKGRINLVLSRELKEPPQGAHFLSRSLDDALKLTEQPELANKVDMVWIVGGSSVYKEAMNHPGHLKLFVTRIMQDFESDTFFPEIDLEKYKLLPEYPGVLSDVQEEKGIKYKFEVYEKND
Description: Elisa assay of human DHFR enzyme. In kind it is biochemical. As to conditions: for IC50: DHFR ELISA kit, triplicate; for inhibition at 0.1 µM: conc 0.1 uM; for inhibition at 1 µM: conc 1 uM; for inhibition at 10 µM: conc 10 uM; for inhibition at 100 µM: conc 100 uM. The procedure:
Enzyme-linked immunosorbent assay (ELISA) assay technique was used to evaluate the anti-DHFR effects of all the synthesised compounds on as described previously. The DHFR ELISA kit (MyBioSource, MBS9312476 San Diego, CA, USA) was used according to the manufacturer instructions. […] The test was repeated in triplicate, and the significance was assessed by one-way ANOVA test followed by Tukey’s posttest, where p < 0.05 was considered significance.

For test [2], the system named is colorectal carcinoma (HCT-116). Description: SRB cytotoxicity assay, HCT-116. The class given is cell-based. The conditions noted are these: Homo sapiens, HCT-116 cells. The procedure: (§1) The SRB colorimetric assay was employed to assess the synthesized compounds’ cytotoxic effects on several cancer cell lines (Table 1)[11–14]. […] Furthermore, the effect of tested compounds was evaluated on the normal immortalized HPDE cell line.
(§2) Sulforhodamine B (SRB) assay was employed to assay in-vitro antitumor activities of all the synthesised compounds as describer previously. […] The cell lines were obtained from the American Type Culture Collection (Rockville, USA).

For test [3], the system named is mammary gland breast cancer (MCF-7). In words: SRB cytotoxicity assay, MCF-7. In kind it is cell-based. As to conditions: Homo sapiens, MCF7, MCF-7 cells. The procedure:
as §1, §2

Test [4] concerns normal immortalised pancreatic cell line (HPDE). In words: SRB cytotoxicity assay, normal HPDE cells. In kind it is cell-based. As to conditions: normal immortalized HPDE cell line. As for the experimental part:
as §1, §2

Test [5] has as its system human hepatocellular carcinoma (HepG-2). In words: SRB cytotoxicity assay, HepG-2. In kind it is cell-based. The conditions noted are these: HepG2, HepG-2 cells. As for the experimental part:
as §1, §2

Test [6] deals with pancreatic human cancer cell lines (BxPC-3). In words: SRB cytotoxicity assay, BxPC-3. The class given is cell-based. The conditions noted are these: BxPC-3 cells. The procedure:
as §1, §2

The subject of test [7] is human prostate cancer (PC-3). In words: SRB cytotoxicity assay, PC-3. In kind it is cell-based. As to conditions: PC-3 cells. The procedure:
as §1, §2

`CC(C)C(NC(=O)c1ccc(Nc2ncnc3c2cnn3-c2ccccc2)cc1)C(=O)O` (stereo not drawn) [Compound 7c, 3-Methyl-2-{4-[(1-phenyl-1H-pyrazolo[3,4-d]pyrimidin-4-yl)amino]benzamido}butanoic acid]: the IC50 in test [1] was 9.39 ± 0.25 µM; on human DHFR enzyme, < 1 µM and ~0.61 µM and 0.61 µM; in test [2], 10.6 ± 1.1 µM; in test [3], 6.56 ± 0.18 µM; in test [4] it was greater than 50 µM; in test [5], 12.2 ± 1.14 µM. Further, the IC50 in test [6] was 10.2 ± 1.01 µM; in test [7], 11.2 ± 0.34 µM. The compound also returned an inhibition at 0.1 µM on human DHFR enzyme of 39%. For the same compound, the inhibition at 1 µM on human DHFR enzyme was determined as 65%. In addition, at 10 µM the inhibition on human DHFR enzyme was 80%. Besides, at human DHFR enzyme, at 100 µM the inhibition was 94%.
Turning to `O=C(NC(CS)C(=O)O)c1ccc(Nc2ncnc3c2cnn3-c2ccccc2)cc1` (stereo not drawn) [Compound 7g, 3-Mercapto-2-{4-[(1-phenyl-1H-pyrazolo[3,4-d]pyrimidin-4-yl)amino]benzamido}propanoic acid], the IC50 is 12.3 ± 1.2 µM in test [1]; 1.28 ± 0.03 µM against human DHFR enzyme; 12.2 ± 1.2 µM in test [2]; 10.8 ± 1.1 µM in test [3]; greater than 50 µM in test [4]; 10.2 ± 0.92 µM in test [5]. The IC50 came out at 15.2 ± 0.22 µM in test [6] and 13.2 ± 1.52 µM in test [7]. On human DHFR enzyme, this compound registered an inhibition at 0.1 µM of 37%. For the same compound, 1 µM produced 55% inhibition on human DHFR enzyme. At human DHFR enzyme, this compound yielded an inhibition at 10 µM of 70%. Further, testing at 100 µM at human DHFR enzyme gave an inhibition of 84%.
Consider `COc1cccc2c1C(=O)c1c(O)c3c(c(O)c1C2=O)C[C@@](O)(C(=O)CO)C[C@@H]3O[C@H]1C[C@H](N)[C@H](O)[C@H](C)O1` [Doxorubicin, reference compound], for which the IC50 in test [3] was 4.25 ± 0.15 µM; in test [4] it was greater than 50 µM; in test [5] it was 4.6 ± 0.44 µM; in test [6], 7.23 ± 0.1 µM; in test [7] it was 9.01 ± 0.09 µM.
Turning to `CN(Cc1cnc2nc(N)nc(N)c2n1)c1ccc(C(=O)N[C@@H](CCC(=O)O)C(=O)O)cc1` [Methotrexate, methotrexate, reference compound], the IC50 in test [1] was 294.8 ± 0.51 µM; in test [2] it was 99.98 ± 0.22 µM; in test [3], 66.11 ± 0.15 µM; in test [4], greater than 50 µM; in test [5], 800.24 ± 0.16 µM; in test [6] it was 29.1 ± 0.31 µM. The compound also showed an IC50 in test [7] of 42.3 ± 7.25 µM.
As to `O=C(c1ccc(Nc2ncnc3c2cnn3-c2ccccc2)cc1)n1nnc2ccccc21` [Compound 6, {1H-benzo[d][1,2,3]triazol-1-yl}{4-[(1-phenyl-1H-pyrazolo-[3,4-d]pyrimidin-4-yl)-amino]phenyl}-methanone], the IC50 was 15.1 ± 1.21 µM in test [1]; 7.99 ± 0.16 µM against human DHFR enzyme; 17.3 ± 2.18 µM in test [2]; 11.9 ± 1.1 µM in test [3]; greater than 50 µM in test [4]; 13 ± 1.86 µM in test [5]. For the same compound, the IC50 in test [6] stood at 14.2 ± 1.36 µM; in test [7], 14.9 ± 1.24 µM. At 0.1 µM the inhibition at human DHFR enzyme was 17%. At human DHFR enzyme, the inhibition at 1 µM is 29%. At human DHFR enzyme, this compound displayed an inhibition at 10 µM of 61%. At human DHFR enzyme, this compound gave an inhibition at 100 µM of 89%.
As for `O=C(NC(Cc1ccccc1)C(=O)O)c1ccc(Nc2ncnc3c2cnn3-c2ccccc2)cc1` (stereo not drawn) [Compound 7l, 3-Phenyl-2-{4-[(1-phenyl-1H-pyrazolo[3,4-d]pyrimidin-4-yl)amino]benzamido}propanoic acid], the IC50 in test [1] was 9.05 ± 1.2 µM; at human DHFR enzyme it was < 1 µM and ~0.66 µM and 0.66 µM; in test [2] it was 13 ± 0.89 µM; in test [3], 10.7 ± 1.09 µM; in test [4], greater than 50 µM; in test [5], 13.2 ± 1.29 µM. For the same compound, the IC50 was determined as 11.5 ± 0.76 µM in test [6] and 10.1 ± 0.9 µM in test [7]. The inhibition at 0.1 µM at human DHFR enzyme turned out to be 34%. Besides, the inhibition at 1 µM against human DHFR enzyme amounted to 68%. The compound further yielded an inhibition at 10 µM against human DHFR enzyme of 81%. This compound also showed an inhibition at 100 µM at human DHFR enzyme of 92%.
For `O=C(NC(Cc1c[nH]c2ccccc12)C(=O)O)c1ccc(Nc2ncnc3c2cnn3-c2ccccc2)cc1` (stereo not drawn) [Compound 7k, 3-(1h-Indol-3-yl)-2-{4-[(1-phenyl-1H-pyrazolo[3,4-d]pyrimidin-4-yl)amino]benzamido}propanoic acid], the concentration for half-maximal inhibition (IC50) is 19.5 ± 1.1 µM in test [1]; 7 ± 0.17 µM at human DHFR enzyme; 18 ± 1.23 µM in test [2]; 28.9 ± 1.91 µM in test [3]; greater than 50 µM in test [4]; 25.54 ± 0.14 µM in test [5]. The IC50 in test [6] came to 19.1 ± 1.23 µM; in test [7] it was 19.9 ± 1.35 µM. The compound further displayed an inhibition at 0.1 µM against human DHFR enzyme of 21%. This compound also displayed an inhibition at 1 µM at human DHFR enzyme of 37%. At human DHFR enzyme, this compound returned an inhibition at 10 µM of 60%. Also, the inhibition at 100 µM at human DHFR enzyme was determined as 77%.
For `O=C(NC(Cc1ccc(O)cc1)C(=O)O)c1ccc(Nc2ncnc3c2cnn3-c2ccccc2)cc1` (stereo not drawn) [Compound 7m, 3-(4-Hydroxyphenyl)-2-{4-[(1-phenyl-1H-pyrazolo[3,4-d]pyrimidin-4-yl)amino]benzamido}-propanoic acid], the IC50 in test [1] was 11.8 ± 1.13 µM; against human DHFR enzyme it was 1.34 ± 0.03 µM; in test [2], 13.3 ± 2.21 µM; in test [3] it was 11.3 ± 1.28 µM; in test [4], greater than 50 µM; in test [5], 14.2 ± 0.98 µM. For the same compound, the IC50 in test [6] worked out at 12 ± 1.14 µM; in test [7], 12.7 ± 1.87 µM. On human DHFR enzyme, the inhibition at 0.1 µM is 36%. The compound also yielded an inhibition at 1 µM on human DHFR enzyme of 52%. For the same compound, the inhibition at 10 µM on human DHFR enzyme was determined as 73%. For the same compound, the inhibition at 100 µM against human DHFR enzyme worked out at 86%.
With `CC(NC(=O)c1ccc(Nc2ncnc3c2cnn3-c2ccccc2)cc1)C(=O)O` (stereo not drawn) [Compound 7b, 2-{4-[(1-Phenyl-1H-pyrazolo[3,4-d]pyrimidin-4-yl)amino]benzamido}propanoic acid], the IC50 in test [1] was 29.2 ± 1.9 µM; on human DHFR enzyme it was 42.5 ± 0.78 µM; in test [2], 29.6 ± 1.91 µM; in test [3] it was 35.7 ± 2.09 µM; in test [4], greater than 50 µM; in test [5] it was 19.2 ± 1.87 µM. Also, the IC50 worked out at 31.2 ± 2.8 µM in test [6] and 34.2 ± 2.61 µM in test [7]. The compound also showed an inhibition at 0.1 µM against human DHFR enzyme of 6.4%. At human DHFR enzyme, at 1 µM the inhibition was 20%. The inhibition at 10 µM on human DHFR enzyme came out at 38%. The compound further displayed an inhibition at 100 µM against human DHFR enzyme of 72%.
`O=C(O)CCC(NC(=O)c1ccc(Nc2ncnc3c2cnn3-c2ccccc2)cc1)C(=O)O` (stereo not drawn) [Compound 7e, 2-{4-[(1-Phenyl-1H-pyrazolo[3,4-d]pyrimidin-4-yl)amino]benzamido}pentanedioic acid]: the IC50 in test [1] was 13.1 ± 1.01 µM; against human DHFR enzyme it was 1.83 ± 0.04 µM; in test [2], 15.3 ± 1.18 µM; in test [3], 11.9 ± 1.1 µM; in test [4], greater than 50 µM; in test [5] it was 16 ± 0.8 µM. For the same compound, the IC50 amounted to 15.2 ± 1.15 µM in test [6] and 13.8 ± 1.14 µM in test [7]. This compound also came in with an inhibition at 0.1 µM against human DHFR enzyme of 28%. This compound showed an inhibition at 1 µM against human DHFR enzyme of 57%. The inhibition at 10 µM against human DHFR enzyme stood at 72%. The compound further showed an inhibition at 100 µM on human DHFR enzyme of 89%.
Take `O=C(NC(Cc1c[nH]cn1)C(=O)O)c1ccc(Nc2ncnc3c2cnn3-c2ccccc2)cc1` (stereo not drawn) [Compound 7i, 3-(1h-Imidazol-4-yl)-2-{4-[(1-phenyl-1H-pyrazolo[3,4-d]pyrimidin-4-yl)amino]benzamido}-propanoic acid]: the IC50 in test [1] was 10.9 ± 1.99 µM; at human DHFR enzyme, < 1 µM and 0.82 µM; in test [2], 13 ± 1.01 µM; in test [3], 13.2 ± 1.21 µM; in test [4], greater than 50 µM; in test [5] it was 9.26 ± 1.56 µM. Also, the values for the IC50 in test [6] and in test [7] were 10.5 ± 3.01 µM and 12.8 ± 2.01 µM, respectively. Moreover, at 0.1 µM the inhibition at human DHFR enzyme was 35%. The compound also displayed an inhibition at 1 µM against human DHFR enzyme of 63%. At human DHFR enzyme, this compound had an inhibition at 10 µM of 80%. The compound further showed an inhibition at 100 µM at human DHFR enzyme of 94%.
Turning to `O=C(O)CNC(=O)c1ccc(Nc2ncnc3c2cnn3-c2ccccc2)cc1` [Compound 7a, 2-{4-[(1-Phenyl-1H-pyrazolo[3,4-d]pyrimidin-4-yl)amino]benzamido}acetic acid], the IC50 in test [1] is 19.4 ± 1.21 µM; against human DHFR enzyme, 13.3 ± 0.24 µM; in test [2] it was 28.2 ± 1.93 µM; in test [3] it was 15.3 ± 1.29 µM; in test [4], greater than 50 µM; in test [5], 15.5 ± 0.96 µM. Further, the results for the IC50 in test [6] and in test [7] were 19.4 ± 1.56 µM and 23 ± 1.03 µM, respectively. The same compound showed an inhibition at 0.1 µM at human DHFR enzyme of 12%. The same compound displayed an inhibition at 1 µM against human DHFR enzyme of 30%. Moreover, the inhibition at 10 µM on human DHFR enzyme was determined as 57%. For the same compound, the inhibition at 100 µM on human DHFR enzyme was 81%.
